From patent US20060247156A1, “Use of neuropeptides for ligament, cartilage, and bone healing” (priority 2004, published 2006)
“Also recorded” adds a separate entry of the source.

Tests used:
[1] = system: cartilage and subchondral bone defect in the trochlear groove; assay: Full-thickness cartilage defect healing with substance P delivery, histological grading; assay type: in vivo, rat
From the text: Purpose-bred male Wistar rats, were used in this Example. Rats were acclimated to the animal care facility for seven days before use. All rats then undergo general anesthesia for surgical induction of cartilage injury. All rats underwent bilateral surgery. At the time of surgery, miniosmotic pumps were placed for NP treatment. All pumps remained in place throughout the experiment. At various time intervals after the surgery (2, 4 and 6 weeks), the rats were euthanized each joint was harvested for histological analysis.
Cartilage Injury: A […] long incision was made over the patellar tendon and the tendon and surrounding tissue was exposed. A mini-arthrotomy was made and the patella was subluxed (dislocated) to expose the femoral condyles and trochlear groove. A drill was used to create a full thickness (3 mm deep) hole, 0.635 mm in diameter, in the trochlear groove. The patella was then repositioned and the muscle fascia and subcutaneous tissue was closed with a continuous suture pattern, and the skin apposed with skin staples.
Neuropeptide delivery: Substance P (75 pg/100 μl) was infused subcutaneously (0.25 μl/hr) via the implantation of mini-osmotic pumps (Alza Corp. Palo Alto, Calif.). In all rats, neuropeptide infused pumps were implanted in a subcutaneous pocket after induction of general anesthesia. […]

[2] = system: ruptured MCL of a surgical sympathectomy (SS) rat; assay: Local neuropeptide delivery to ruptured MCL of surgical sympathectomy (SS) rats: mechanical testing, histomorphology; assay type: in vivo; conditions: for failure force / ultimate stress / mechanical strength of healing MCL (in words): two weeks of healing; for mechanical strength of healing MCL (in words): local delivery
From the text: Surgical Procedure: Thirteen female Wistar rats (306 g to 339 g) were divided into two groups: surgical sympathectomy (SS) or sham control. All rats were anesthetized with isofluorane as described in Example 1. A transperitoneal approach was used. The lower abdomen was shaved and prepared for surgery. A skin incision approximately 25 mm long was made. Fascia and abdominal muscle were incised. Abdominal organs were displaced. With the aid of a dissecting microscope, fascia surrounding the deep muscle tissue was separated (with minimal disruption to the muscle tissue) to expose the post-ganglionic sympathetic nerves. The L1-4 nerves were isolated and transected (with removal of a 5 mm segment of the nerves) in the surgical sympathectomy group only. In both groups, the deep muscle tissue was returned to its initial position and abdominal organs were replaced. Abdominal muscles and skin were closed in two layers with a 3-0 or 4-0 continuous dexon suture. Rats from each group (n=4 SS; n=3 controls) then underwent a complete surgical rupture of the MCL to one knee. The contra-lateral knee underwent sham surgery. […] Two weeks post-surgery, rats were sacrificed using an overdose of pentobarbitone (150 mg/kg).
Local delivery of NPs and NP inhibitors is important to identify the specific roles of individual NPs on healing tissues. An animal model for the local delivery of NPs has been developed and is presented in this Example. Briefly, NP infused mini-osmotic pumps were implanted subcutaneously into the back of rats. A small catheter running from the pump to an intramuscular space above the MCL was secured to the rat.
To test whether autonomic NPs improve healing in SS-ruptured MCLs, three female Wistar rats (193 g to 204 g) were given VIP locally to the MCL. Vasoactive intestinal peptide (75 pg/μl) was infused into a mini-osmotic pump and was delivered to a ruptured MCL of a surgical sympathectomy (SS) rat (see surgical procedure above). Within minutes of surgical intervention, all rats recovered and had normal movement and behavior (grooming, feeding, etc.). […] The results are presented graphically in FIG. 6.
Animal Model and Surgery: Thirty-seven female Wistar rats (199-298 g) were divided into five groups. […] Rats that were designated to receive SP or CGRP underwent bilateral femoral nerve transection (see previous examples). Rats that were designated to receive NPY, VIP, or a combination of NPY and VIP underwent bilateral surgical sympathectomy. Following surgical nerve transection, each rat also underwent bilateral MCL rupture. Neuropeptides were then delivered ruptured MCLs unilaterally. Neuropeptide infused mini-osmotic pumps (Alzet Corp.) were implanted subcutaneously into the back of each rat. A small catheter running from the pump was run to an intramuscular space above the MCL and was secured. To ensure that neuropeptides are delivered directly to the MCL, rhodamine labeled SP was delivered via a catheter to the MCL (n=2 rats).
Within minutes of surgical intervention, all rats recovered and had normal movement and behavior (grooming, feeding, etc.). To test whether autonomic NPs improve healing in SS ruptured MCLs, seven rats were given VIP, seven rats were given NPY, and seven rats were given a combination of VIP and NPY. […]
Mechanical Testing: Mechanical testing was performed as described in the preceding examples. Briefly, animal hind limbs from all groups (n=4 for all groups) were disarticulated at the hip joint and stored at −80° C. until testing. On the day of testing, MCLs including intact femoral and tibial bone sections were excised for ex vivo testing. Ligament thickness and width was measured optically, and MCL area was estimated with elliptical geometry. For strain measurements, optical markers were placed onto the ligament tissue near the insertion sites. […]

[3] = Example 3: VIP 75 pg/μl via mini-osmotic pump to ruptured MCL of SS rat
[4] = Example 6: SS rats, bilateral MCL rupture, mini-osmotic pump (NPY 65 pg/100 μl; VIP 100 pg/100 μl; or both)

In the case of Substance P [SP], the “average cartilage repair score (0 no damage to 24)” value ([1]; Substance P 75 pg/100 μl, 0.25 μl/hr via mini-osmotic pump, initial two week period, Sellers grading) is reported as 11.9 and the “healing of cartilage and subchondral bone (in words)” value ([1]; full-thickness cartilage defects after two weeks of healing) is reported as “greatly improved healing of both the cartilage and subchondral bone”.

Substance vasoactive intestinal peptide [VIP] has a failure force [2, 3] of 44.23 N, a ultimate stress [2, 3] of 29.63 MPa and a failure force [2, 4] of 44.2±3.1 N. For the same substance, the ultimate stress [2, 4] was 29.6±10.0 MPa, the “histomorphology (H&E) of healing MCL” value ([2]; SS rats, VIP or NPY, two weeks) was “more aligned” and the “mechanical strength of healing MCL (in words)” value ([2]; SS rats) was “greater than the strength of uninjured MCLs; also recorded: completely reversed the functional deficits”. For the same substance, the “mechanical strength of healing MCL (in words)” value ([2]; SS rats, listed as Vasoactive intestinal peptide) was “greater strength than intact, normally innervated MCLs”.
